The NIST ThermoML archive (doi:10.1021/acs.jced.7b00694)

Test: xn = mol fraction of the nth substance listed
Conditions: Gas, Buoyancy - hydrostatic balance with magnetic suspension - one sinker

[HH] [hydrogen] + N#N
Conditions	mass density [kg/m3]
324.95 K, 4997 kPa, x2 = 0.95	49.08
324.95 K, 4998 kPa, x2 = 0.9	46.597
324.95 K, 5000 kPa, x2 = 0.5001	27.194
324.95 K, 5997 kPa, x2 = 0.9	55.762
324.95 K, 5997 kPa, x2 = 0.95	58.767
324.95 K, 6001 kPa, x2 = 0.5001	32.482
324.95 K, 6997 kPa, x2 = 0.9	64.863
324.95 K, 7000 kPa, x2 = 0.95	68.408
324.95 K, 7002 kPa, x2 = 0.5001	37.712
324.95 K, 7996 kPa, x2 = 0.5001	42.85
324.95 K, 7997 kPa, x2 = 0.95	77.913
324.95 K, 7998 kPa, x2 = 0.9	73.894
324.95 K, 8997 kPa, x2 = 0.5001	47.967
324.95 K, 8998 kPa, x2 = 0.9	82.834
324.95 K, 8999 kPa, x2 = 0.95	87.379
324.95 K, 9998 kPa, x2 = 0.5001	53.025
324.95 K, 9998 kPa, x2 = 0.9	91.672
324.95 K, 9999 kPa, x2 = 0.95	96.736
324.95 K, 10996 kPa, x2 = 0.5001	58.014
324.95 K, 10996 kPa, x2 = 0.95	105.963
324.95 K, 10997 kPa, x2 = 0.9	100.42
324.95 K, 11997 kPa, x2 = 0.5001	62.949
324.95 K, 11999 kPa, x2 = 0.9	109.068
324.95 K, 12979 kPa, x2 = 0.95	123.971
324.95 K, 12995 kPa, x2 = 0.5001	67.81
324.95 K, 13000 kPa, x2 = 0.9	117.611
324.95 K, 13992 kPa, x2 = 0.5001	72.609
324.95 K, 13997 kPa, x2 = 0.9	126.005
324.95 K, 13998 kPa, x2 = 0.95	133.041
324.95 K, 14993 kPa, x2 = 0.5001	77.366
324.95 K, 14996 kPa, x2 = 0.9	134.301
324.95 K, 15985 kPa, x2 = 0.5001	82.016
324.95 K, 15998 kPa, x2 = 0.9	142.496
324.95 K, 16998 kPa, x2 = 0.5001	86.706
324.95 K, 17000 kPa, x2 = 0.9	150.561
324.95 K, 17998 kPa, x2 = 0.5001	91.271
324.95 K, 18003 kPa, x2 = 0.9	158.509
324.95 K, 18996 kPa, x2 = 0.5001	95.768
324.95 K, 19001 kPa, x2 = 0.9	166.298
324.95 K, 19974 kPa, x2 = 0.5001	100.115
349.93 K, 2982 kPa, x2 = 0.95	27.214
349.93 K, 12999 kPa, x2 = 0.95	114.314
349.93 K, 13999 kPa, x2 = 0.95	122.495
349.93 K, 14993 kPa, x2 = 0.95	130.518
349.93 K, 15998 kPa, x2 = 0.95	138.524
349.94 K, 997 kPa, x2 = 0.95	9.137
349.94 K, 998 kPa, x2 = 0.9	8.697
349.94 K, 999 kPa, x2 = 0.5001	5.133
349.94 K, 1998 kPa, x2 = 0.5001	10.223
349.94 K, 1998 kPa, x2 = 0.95	18.271
349.94 K, 1999 kPa, x2 = 0.9	17.375
349.94 K, 2979 kPa, x2 = 0.9	25.835
349.94 K, 2984 kPa, x2 = 0.5001	15.198
349.94 K, 3995 kPa, x2 = 0.5001	20.259
349.94 K, 3997 kPa, x2 = 0.95	36.385
349.94 K, 3998 kPa, x2 = 0.9	34.568
349.94 K, 4998 kPa, x2 = 0.9	43.083
349.94 K, 4998 kPa, x2 = 0.95	45.368
349.94 K, 5000 kPa, x2 = 0.5001	25.225
349.94 K, 5998 kPa, x2 = 0.5001	30.119
349.94 K, 5998 kPa, x2 = 0.9	51.533
349.94 K, 5998 kPa, x2 = 0.95	54.273
349.94 K, 6996 kPa, x2 = 0.5001	34.959
349.94 K, 6996 kPa, x2 = 0.95	63.099
349.94 K, 6997 kPa, x2 = 0.9	59.903
349.94 K, 7995 kPa, x2 = 0.5001	39.749
349.94 K, 7998 kPa, x2 = 0.9	68.207
349.94 K, 7998 kPa, x2 = 0.95	71.871
349.94 K, 8997 kPa, x2 = 0.5001	44.504
349.94 K, 8998 kPa, x2 = 0.9	76.424
349.94 K, 8999 kPa, x2 = 0.95	80.553
349.94 K, 9995 kPa, x2 = 0.5001	49.185
349.94 K, 9996 kPa, x2 = 0.9	84.544
349.94 K, 9999 kPa, x2 = 0.95	89.144
349.94 K, 10995 kPa, x2 = 0.5001	53.825
349.94 K, 10996 kPa, x2 = 0.9	92.584
349.94 K, 10998 kPa, x2 = 0.95	97.623
349.94 K, 11994 kPa, x2 = 0.5001	58.4
349.94 K, 11995 kPa, x2 = 0.95	105.989
349.94 K, 11997 kPa, x2 = 0.9	100.534
349.94 K, 12994 kPa, x2 = 0.9	108.364
349.94 K, 12996 kPa, x2 = 0.5001	62.939
349.94 K, 13990 kPa, x2 = 0.5001	67.389
349.94 K, 14000 kPa, x2 = 0.9	116.157
349.94 K, 14992 kPa, x2 = 0.5001	71.82
349.94 K, 14999 kPa, x2 = 0.9	123.797
349.94 K, 15993 kPa, x2 = 0.9	131.294
349.94 K, 15994 kPa, x2 = 0.5001	76.196
349.94 K, 16996 kPa, x2 = 0.5001	80.519
349.94 K, 16996 kPa, x2 = 0.95	146.347
349.94 K, 17001 kPa, x2 = 0.9	138.788
349.94 K, 17991 kPa, x2 = 0.5001	84.762
349.94 K, 17997 kPa, x2 = 0.9	146.084
349.94 K, 18002 kPa, x2 = 0.95	154.124
349.94 K, 18991 kPa, x2 = 0.5001	88.967
349.94 K, 18992 kPa, x2 = 0.9	153.266
349.94 K, 18992 kPa, x2 = 0.95	161.661
349.94 K, 19744 kPa, x2 = 0.9	158.626
349.94 K, 19885 kPa, x2 = 0.5001	92.681
349.94 K, 19940 kPa, x2 = 0.95	168.761
